Experimental data as given in patent publication US20230104936A1, “TRPML MODULATORS” (Casma Therapeutics, Inc., priority 2019, published 2023).

test system: TFEB; assay: TFEB nuclear translocation assay, HeLa wt cells; assay type: cell-based; details: Homo sapiens, HeLa, 2 h, 2 hrs compound treatment, Table 1 does not say HeLa wt or TRPML1 KO
Method in brief: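 AC50 derived from the ratio of nuclear to perinuclear ring (−5 μm) anti-TFEB immunofluorescence, imaged at ×20 over four fields per well. HeLa wt or TRPML1 KO cells were exposed to compounds for 2 hrs at 37° C, then PFA-fixed and counterstained with Hoechst.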

Structure (SMILES)	AC50
COCCN1CC2(CCN(c3ccccc3NS(=O)(=O)c3ccc(S(C)(=O)=O)cc3)CC2)c2ccc(F)cc21 [Compound A-466, N-{2-[6-fluoro-1-(2-methoxyethyl)-1,2-dihydrospiro[indole-3,4′-piperidin]-1′-yl]phenyl}-4-methanesulfonylbenzene-1-sulfonamide]	≤ 2 µM
CS(=O)(=O)c1ccc(S(=O)(=O)Nc2ccccc2N2CCC3(CC2)CN(CC2CCCO2)c2cc(F)ccc23)cc1 (stereo not drawn) [Compound A-467, N-(2-{6-fluoro-1-[(oxolan-2-yl)methyl]-1,2-dihydrospiro[indole-3,4′-piperidin]-1′-yl}phenyl)-4-methanesulfonylbenzene-1-sulfonamide]	≤ 2 µM
CS(=O)(=O)c1ccc(S(=O)(=O)Nc2ccccc2N2CCC3(CC2)CN(CC2CC2(F)F)c2cc(F)ccc23)cc1 (stereo not drawn) [Compound A-468, N-(2-{1-[(2,2-difluorocyclopropyl)methyl]-6-fluoro-1,2-dihydrospiro[indole-3,4′-piperidin]-1′-yl}phenyl)-4-methanesulfonylbenzene-1-sulfonamide]	≤ 2 µM
CS(=O)(=O)c1ccc(S(=O)(=O)Nc2ccccc2N2CCC3(CC2)CN(C(=O)OC2CCOC2)c2cc(F)ccc23)cc1 (stereo not drawn) [Compound A-469, oxolan-3-yl 6-fluoro-1′-[2-(4-methanesulfonylbenzenesulfonamido)phenyl]-1,2-dihydrospiro[indole-3,4′-piperidine]-1-carboxylate]	≤ 2 µM
CN(C)S(=O)(=O)c1ccc(S(=O)(=O)Nc2ccccc2N2CCC(C(=O)C(C)(C)C)CC2)cc1 [Compound A-470, N4-{2-[4-(2,2-dimethylpropanoyl)piperidin-1-yl]phenyl}-N1,N1-dimethylbenzene-1,4-disulfonamide]	≤ 2 µM
CN(C)S(=O)(=O)c1ccc(S(=O)(=O)Nc2ccccc2N2CCC(O)(C(C)(C)C)CC2)cc1 [Compound A-471, N1-(2-(4-(tert-butyl)-4-hydroxypiperidin-1-yl)phenyl)-N4,N4-dimethylbenzene-1,4-disulfonamide]	≤ 2 µM
CN1CC2(CCN(c3ccccc3NS(=O)(=O)c3ccc(S(=O)(=O)N(C)C)cc3)C(=O)C2)c2ccc(F)cc21 (stereo not drawn) [Compound A-472, N4-(2-{6-fluoro-1-methyl-2′-oxo-1,2-dihydrospiro[indole-3,4′-piperidin]-1′-yl}phenyl)-N1,N1-dimethylbenzene-1,4-disulfonamide]	≤ 2 µM
CN(C)S(=O)(=O)c1ccc(S(=O)(=O)Nc2ccccc2N2CCC3(CC2)OC(=O)c2cc(F)cnc23)cc1 [Compound A-473, N4-(2-{3-fluoro-5-oxo-5H-spiro[furo[3,4-b]pyridine-7,4′-piperidin]-1′-yl}phenyl)-N1,N1-dimethylbenzene-1,4-disulfonamide]	2.01 to 8 µM
CC(c1ccccc1N1CCN(C(=O)C(C)(C)C)CC1)S(=O)(=O)c1ccc(S(=O)(=O)N(C)C)cc1 (stereo not drawn) [Compound A-474, 4-(1-{2-[4-(2,2-dimethylpropanoyl)piperazin-1-yl]phenyl}ethanesulfonyl)-N,N-dimethylbenzene-1-sulfonamide]	2.01 to 8 µM
CCC1(N2CCCCC2)CCN(c2ccccc2NS(=O)(=O)c2ccc(S(=O)(=O)N(C)C)cc2)CC1 [Compound A-475, N4-(2-{4′-ethyl-[1,4′-bipiperidin]-1′-yl}phenyl)-N1,N1-dimethylbenzene-1,4-disulfonamide]	≤ 2 µM
CN(C)S(=O)(=O)c1ccc(S(=O)(=O)Nc2ccccc2N2CCN(C(=O)C3(C)CCCO3)CC2)cc1 (stereo not drawn) [Compound A-476, N1,N1-dimethyl-N4-{2-[4-(2-methyloxolane-2-carbonyl)piperazin-1-yl]phenyl}benzene-1,4-disulfonamide]	2.01 to 8 µM
CN(C)S(=O)(=O)c1ccc(S(=O)(=O)Nc2ccccc2N2CCN(C(=O)C3(C)CC(F)(F)C3)CC2)cc1 [Compound A-478, N4-{2-[4-(3,3-difluoro-1-methylcyclobutanecarbonyl)piperazin-1-yl]phenyl}-N1,N1-dimethylbenzene-1,4-disulfonamide]	2.01 to 8 µM
CN(C)S(=O)(=O)c1ccc(S(=O)(=O)Nc2ccccc2N2CCC(C3CC3(F)F)CC2)cc1 (stereo not drawn) [Compound A-479, N4-{2-[4-(2,2-difluorocyclopropyl)piperidin-1-yl]phenyl}-N1,N1-dimethylbenzene-1,4-disulfonamide]	≤ 2 µM
CN(C)S(=O)(=O)c1ccc(S(=O)(=O)Nc2ccccc2N2CCCN(C(=O)C(C)(C)C)CC2)cc1 [Compound A-480, N4-{2-[4-(2,2-dimethylpropanoyl)-1,4-diazepan-1-yl]phenyl}-N1,N1-dimethylbenzene-1,4-disulfonamide]	2.01 to 8 µM
CS(=O)(=O)c1ccc(S(=O)(=O)Nc2ccccc2N2CCC3(CC2)COCc2ccccc23)cc1 [Compound A-481, N-(2-{1,3-dihydrospiro[2-benzopyran-4,4′-piperidin]-1′-yl}phenyl)-4-methanesulfonylbenzene-1-sulfonamide]	≤ 2 µM
NS(=O)(=O)c1ccc(S(=O)(=O)Nc2ccccc2N2CCC(c3ccc(Cl)cc3F)CC2)cc1 [Compound A-482, N1-{2-[4-(4-chloro-2-fluorophenyl)piperidin-1-yl]phenyl}benzene-1,4-disulfonamide]	2.01 to 8 µM
COCC1(C)CCN(c2ccccc2NS(=O)(=O)c2ccc(C(C)(C)C)cc2)CC1 [Compound A-483, 4-tert-butyl-N-{2-[4-(methoxymethyl)-4-methylpiperidin-1-yl]phenyl}benzene-1-sulfonamide]	≤ 2 µM

Structure (SMILES)	AC50
CN(C)S(=O)(=O)c1ccc(S(=O)(=O)Nc2ccccc2N2CCCN(C3CC3)CC2)cc1 [Compound A-484, N4-[2-(4-cyclopropyl-1,4-diazepan-1-yl)phenyl]-N1,N1-dimethylbenzene-1,4-disulfonamide]	2.01 to 8 µM
CC(C)(C)C(=O)N1CCN(c2ccccc2NS(=O)(=O)Cc2cccc(Br)c2)CC1 [Compound A-485, 1-(3-bromophenyl)-N-{2-[4-(2,2-dimethylpropanoyl)piperazin-1-yl]phenyl}methanesulfonamide]	2.01 to 8 µM
Cc1ccc(CS(=O)(=O)Nc2ccccc2N2CCN(C(=O)C(C)(C)C)CC2)cc1C [Compound A-486, 1-(3,4-dimethylphenyl)-N-{2-[4-(2,2-dimethylpropanoyl)piperazin-1-yl]phenyl}methanesulfonamide]	2.01 to 8 µM
CN(C)S(=O)(=O)c1ccc(S(=O)(=O)Nc2ccccc2N2CCN(C(=O)C34CCCCC3C4)CC2)cc1 (stereo not drawn) [Compound A-487, N4-[2-(4-{bicyclo[4.1.0]heptane-1-carbonyl}piperazin-1-yl)phenyl]-N1,N1-dimethylbenzene-1,4-disulfonamide]	≤ 2 µM
CC(C)(C)C(=O)N1CCN(c2ccccc2NS(=O)(=O)Cc2ccc(Br)cc2F)CC1 [Compound A-488, 1-(4-bromo-2-fluorophenyl)-N-{2-[4-(2,2-dimethylpropanoyl)piperazin-1-yl]phenyl}methanesulfonamide]	8.01 to 9.99 µM
COCC1(C)CCN(c2ccccc2NS(=O)(=O)c2ccc(CC(C)(C)C)cc2)CC1 [Compound A-489, 4-(2,2-dimethylpropyl)-N-{2-[4-(methoxymethyl)-4-methylpiperidin-1-yl]phenyl}benzene-1-sulfonamide]	2.01 to 8 µM
COCC1(C)CCN(c2ccccc2NC(C)c2ccc(S(=O)(=O)N(C)C)cc2)CC1 (stereo not drawn) [Compound A-490, 4-[1-({2-[4-(methoxymethyl)-4-methylpiperidin-1-yl]phenyl}amino)ethyl]-N,N-dimethylbenzene-1-sulfonamide]	≥ 10 µM
COCC1(C)CCN(c2ccccc2C(C)S(=O)(=O)c2ccc(S(=O)(=O)N(C)C)cc2)CC1 (stereo not drawn) [Compound A-491, 4-(1-{2-[4-(methoxymethyl)-4-methylpiperidin-1-yl]phenyl}ethanesulfonyl)-N,N-dimethylbenzene-1-sulfonamide]	≤ 2 µM
CN1CCC2(CCN(c3ccccc3NS(=O)(=O)c3ccc(S(C)(=O)=O)cc3)CC2)c2ccccc21 [Compound A-492, 4-methanesulfonyl-N-(2-{1′-methyl-2′,3′-dihydro-1′H-spiro[piperidine-4,4′-quinolin]-1-yl}phenyl)benzene-1-sulfonamide]	≤ 2 µM
COCC1(C)CCN(c2ccccc2CS(=O)(=O)c2ccc(S(=O)(=O)N(C)C)cc2)CC1 [Compound A-493, 4-({2-[4-(methoxymethyl)-4-methylpiperidin-1-yl]phenyl}methanesulfonyl)-N,N-dimethylbenzene-1-sulfonamide]	≤ 2 µM
CN(C)S(=O)(=O)c1ccc(S(=O)(=O)Nc2ccccc2N2CCC(COC(C)(C)C)CC2)cc1 [Compound A-494, N4-(2-{4-[(tert-butoxy)methyl]piperidin-1-yl}phenyl)-N1,N1-dimethylbenzene-1,4-disulfonamide]	≤ 2 µM
CN(C)S(=O)(=O)c1ccc(S(=O)(=O)Nc2ccccc2N2CCN(CC3CCCO3)CC2)cc1 (stereo not drawn) [Compound A-495, N1,N1-dimethyl-N4-(2-{4-[(oxolan-2-yl)methyl]piperazin-1-yl}phenyl)benzene-1,4-disulfonamide]	8.01 to 9.99 µM
COCCCC1CCN(c2ccccc2NS(=O)(=O)c2ccc(S(=O)(=O)N(C)C)cc2)CC1 [Compound A-496, N4-{2-[4-(3-methoxypropyl)piperidin-1-yl]phenyl}-N1,N1-dimethylbenzene-1,4-disulfonamide]	≤ 2 µM
CN(C)S(=O)(=O)c1ccc(S(=O)(=O)Nc2ccccc2N2CCCC3(CCCO3)C2)cc1 (stereo not drawn) [Compound A-497, N1,N1-dimethyl-N4-(2-{1-oxa-7-azaspiro[4.5]decan-7-yl}phenyl)benzene-1,4-disulfonamide]	≤ 2 µM
CCOCCC1CCN(c2ccccc2NS(=O)(=O)c2ccc(S(=O)(=O)N(C)C)cc2)CC1 [Compound A-498, N4-{2-[4-(2-ethoxyethyl)piperidin-1-yl]phenyl}-N1,N1-dimethylbenzene-1,4-disulfonamide]	≤ 2 µM
CN(C)S(=O)(=O)c1ccc(S(=O)(=O)Nc2ccccc2N2CCCC23CCCOC3)cc1 (stereo not drawn) [Compound A-499, N1,N1-dimethyl-N4-(2-{7-oxa-1-azaspiro[4.5]decan-1-yl}phenyl)benzene-1,4-disulfonamide]	≤ 2 µM
